Data: patent US20090192191A1, “Substituted hydroxamic acid derivatives as tnf inhibitors” (priority 2004, published 2009)

System: TNF-α
Experiment: In vitro screening for TNF-α inhibitory activity using rat whole blood assay
Assay type: cell-based
Conditions: 10 μM test substance, LPS 1 μg/mL, 5 h at 37° C, plasma TNF-α by ELISA; for inhibition at 10 µM: read-out: % of TNF-α inhibition at 10 μM dose
Description: In Vitro Screening for TNF-α Inhibitory Activity Using Rat Whole Blood Assay:
Rats were deeply anaesthetized with anesthetic ether and blood (6-8 mL) was collected through retro-orbital plexus in a tube containing heparin (100 IU/mL). Five hundred microlitre blood sample was incubated with different concentrations of the test substances for 15 min at 37° C. LPS (1 μg/mL, final concentration) was subsequently added and the mixture was further incubated for 5 h at 37° C. The reaction was terminated by placing the samples over ice for 15 min. The samples were then centrifuged at 1000 g for 15 min at 4° C. The plasma was separated and stored in deep freezer until the assay. TNF-α levels were estimated in the treated plasma samples by ELISA method using commercially available kit (R&D System, Inc., USA). The inhibition of the TNF-α[…] production may be taken as an indicator of inhibition of TACE activity.

2-3-Amino-3-{4-[2-(4-methoxy)phenyl)-quinolin-4-ylmethoxy]-phenyl}-2-oxo-pyrrolidin-1-yl)-4-methyl-pentanoic acid hydroxyamide [Compound 14]
% of TNF-α inhibition at 10 μM dose: 85%

2-{3-Amino-2-oxo-3-[4-2-p-tolyl-quinolin-4-ylmethoxy)-phenyl]-pyrrolidin-1-yl}-N-hydroxy-propionamide [Compound 9]
% of TNF-α inhibition at 10 μM dose: 82%

2-{3-Amino-2-oxo-3-[4-(2-p-tolylsuinolin-4-ylmethoxy)-phenyl]-pyrrolidin-1-yl}-4-methyl-pentanoic acid hydroxyamide [Compound 8]
% of TNF-α inhibition at 10 μM dose: 84%

COc1ccc(-c2cc(COc3ccc([C@]4(N)CCN([C@H](C)C(=O)NO)C4=O)cc3)c3ccccc3n2)cc1 (stereo in doubt) [Compound 15, 2-(3-Amino-3-{4-[2-(4-methoxy-phenyl}-quinolin-4-ylmethoxy]-phenyl)-2-oxo-pyrrolidin-1-yl)-N-hydroxy-propionamide]
inhibition at 10 µM: 84%

COCc1cc(COc2ccc([C@]3(N)CCN([C@H](CC(C)C)C(=O)NO)C3=O)cc2)c2ccccc2n1 [Compound 2]
inhibition at 10 µM: 92%

CC(C)CC(C(=O)NO)N1CCC(N)(c2ccc(OCc3cc(COC(C)C)nc4ccccc34)cc2)C1=O (centres unmarked) [Compound 5]
% of TNF-α inhibition at 10 μM dose: 94%

COCCc1cc(COc2ccc(C3(N)CCN(C(CC(C)C)C(=O)NO)C3=O)cc2)c2ccccc2n1 (centres unmarked) [Compound 7, 2-(3-Amino-3-{4-[2-(2-methoxy-ethyl)quinolin-4-ylmethoxy]-phenyl}-2-oxo-pyrrolidin-1-yl)-4-methyl-pentanoic acid hydroxyamide]
inhibition at 10 µM: 85%

COc1cccc(-c2cc(COc3ccc(C4(N)CCN(C(CC(C)C)C(=O)NO)C4=O)cc3)c3ccccc3n2)c1 (centres unmarked) [Compound 27]
% of TNF-α inhibition at 10 μM dose: 79%
